Assay results as given in patent US20150164762A1, “USE OF ETHANOLAMINE PHOSPHATE” (priority 2012, published 2015).

System: BEAS-2B
Assay: Comprehensive gene expression analysis with Whole Human Genome DNA microarray after EP treatment
Type: cell-based
Description: Cells of the established normal human airway epithelial cell line BEAS-2B were used in the experiment. These cells were expansively cultured in 10% FBS RPMI-1640, and seeded at a density of 1×10^5/cm^2 on a 24-well plate. After 24 hours 0.1% FBS RPMI-1640 was substituted, and EP was administered to a final concentration of 0 or 1 mM (n=4). After 24 hours, the cells were used as the DNA microarray samples. RNA was extracted using a QIAGEN RNeasy Mini Kit. The DNA microarray test was performed using a Whole Human Genome DNA microarray 4×44K (Agilent), and the necessary labeling reagents and the like for the DNA microarray test were all from Agilent. The DNA microarray test data were analyzed statistically with GeneSpring (Agilent) dedicated analysis software, and gene function analysis (Gene Ontology (GO) analysis) was performed based on differential expression. The purpose of the GO analysis is to determine stochastically the degree to which gene sets with statistically significant differential expression correspond to known functional classification gene sets. […] The p-value is calculated according to the following formula.

[1] = probe A_23_P92499, 1 mM EP, 24 h
[2] = probe A_23_P94754, NM_005118, EP vs control
[3] = probe A_23_P94754, 1 mM EP, 24 h
[4] = probe A_23_P104798, NM_001562, EP vs control
[5] = probe A_23_P104881, 1 mM EP, 24 h
[6] = probe A_23_P105138, NM_001752, EP vs control
[7] = probe A_23_P105138, 1 mM EP, 24 h
[8] = probe A_23_P105803, 1 mM EP, 24 h
[9] = probe A_23_P110052, 1 mM EP, 24 h
[10] = probe A_23_P110151, 1 mM EP, 24 h
[11] = probe A_23_P114662, NM_001889, EP vs control
[12] = probe A_23_P115286, 1 mM EP, 24 h
[13] = probe A_23_P118061, 1 mM EP, 24 h
[14] = probe A_23_P118174, 1 mM EP, 24 h
[15] = probe A_23_P122052, NM_001008397, EP vs control
[16] = probe A_23_P122216, NM_002317, EP vs control
[17] = probe A_23_P122216, 1 mM EP, 24 h
[18] = probe A_23_P122775, NM_032730, EP vs control
[19] = probe A_23_P126844, 1 mM EP, 24 h
[20] = probe A_23_P127322, NM_018055, EP vs control
[21] = probe A_23_P127406, NM_018039, EP vs control
[22] = probe A_23_P128050, 1 mM EP, 24 h
[23] = probe A_23_P128215, 1 mM EP, 24 h
[24] = probe A_23_P128230, 1 mM EP, 24 h
[25] = probe A_23_P129313, NM_001159508, EP vs control
[26] = probe A_23_P131588, NM_014482, EP vs control
[27] = probe A_23_P132388, NM_005138, EP vs control
[28] = probe A_23_P134925, 1 mM EP, 24 h
[29] = probe A_23_P135024, 1 mM EP, 24 h
[30] = probe A_23_P135248, NM_006664, EP vs control
[31] = probe A_23_P136116, NM_001004320, EP vs control
[32] = probe A_23_P136493, NM_013962, EP vs control
[33] = probe A_23_P138635, 1 mM EP, 24 h
[34] = probe A_23_P143242, 1 mM EP, 24 h
[35] = probe A_23_P145357, 1 mM EP, 24 h
[36] = probe A_23_P146644, 1 mM EP, 24 h

NCCOP(=O)(O)O [EP, Ethanolamine phosphate]
CIDEC expression log2 [ratio] (probe A_23_P92025, 1 mM EP, 24 h): −0.754 | TLR2 expression R*: Ratio to control [1]: 0.632 times | TLR2 expression log2 [ratio] [1]: −0.662 | TNFSF15 gene expression, R* ratio to control [2]: 0.399 times | TNFSF15 gene expression, log2 [ratio] [2]: −1.327 | TNFSF15 expression R*: Ratio to control [3]: 0.399 times | TNFSF15 expression log2 [ratio] [3]: −1.327 | IL18 gene expression, R* ratio to control [4]: 0.641 times | IL18 gene expression, log2 [ratio] [4]: −0.641 | ROBO4 expression R*: Ratio to control [5]: 1.785 times | ROBO4 expression log2 [ratio] [5]: 0.836 | CAT gene expression, R* ratio to control [6]: 1.505 times | CAT gene expression, log2 [ratio] [6]: 0.589 | CAT expression R*: Ratio to control [7]: 1.505 times | CAT expression log2 [ratio] [7]: 0.589 | FGF9 expression R*: Ratio to control [8]: 1.606 times | FGF9 expression log2 [ratio] [8]: 0.684 | FOXL2 expression R*: Ratio to control [9]: 0.352 times | FOXL2 expression log2 [ratio] [9]: −1.504 | ARHGAP24 expression R*: Ratio to control [10]: 1.670 times | ARHGAP24 expression log2 [ratio] [10]: 0.740 | CRYZ gene expression, R* ratio to control [11]: 1.632 times | CRYZ gene expression, log2 [ratio] [11]: 0.707 | BCL10 expression R*: Ratio to control [12]: 0.542 times | BCL10 expression log2 [ratio] [12]: −0.883 | CKLF expression R*: Ratio to control [13]: 1.501 times | CKLF expression log2 [ratio] [13]: 0.586 | PLK1 expression R*: Ratio to control [14]: 2.447 times | PLK1 expression log2 [ratio] [14]: 1.291 | GPX8 gene expression, R* ratio to control [15]: 1.413 times | GPX8 gene expression, log2 [ratio] [15]: 0.499 | LOX gene expression, R* ratio to control [16]: 1.637 times | LOX gene expression, log2 [ratio] [16]: 0.711 | LOX expression R*: Ratio to control [17]: 1.637 times | LOX expression log2 [ratio] [17]: 0.711 | RTN4IP1 gene expression, R* ratio to control [18]: 1.436 times | RTN4IP1 gene expression, log2 [ratio] [18]: 0.522 | TNFRSF25 expression R*: Ratio to control [19]: 0.532 times | TNFRSF25 expression log2 [ratio] [19]: −0.909 | NODAL gene expression, R* ratio to control [20]: 0.450 times | NODAL gene expression, log2 [ratio] [20]: −1.154 | KDM4D gene expression, R* ratio to control [21]: 1.448 times | KDM4D gene expression, log2 [ratio] [21]: 0.534 | BCL2L14 expression R*: Ratio to control [22]: 0.594 times | BCL2L14 expression log2 [ratio] [22]: −0.751 | SOCS2 expression R*: Ratio to control [23]: 1.720 times | SOCS2 expression log2 [ratio] [23]: 0.783 | NR4A1 expression R: Ratio to control [24]: 0.302 times | NR4A1 expression log2 [ratio] [24]: −1.727 | IVD gene expression, R* ratio to control [25]: 1.473 times | IVD gene expression, log2 [ratio] [25]: 0.559 | BMP10 gene expression, R* ratio to control [26]: 0.625 times | BMP10 gene expression, log2 [ratio] [26]: −0.678 | SCO2 gene expression, R* ratio to control [27]: 1.495 times | SCO2 gene expression, log2 [ratio] [27]: 0.580 | BNIP3L expression R*: Ratio to control [28]: 0.633 times | BNIP3L expression log2 [ratio] [28]: −0.661 | ARHGEF6 expression R*: Ratio to control [29]: 0.270 times | ARHGEF6 expression log2 [ratio] [29]: −1.889 | CCL27 gene expression, R* ratio to control [30]: 0.556 times | CCL27 gene expression, log2 [ratio] [30]: −0.846 | TMEM195 gene expression, R* ratio to control [31]: 1.962 times | TMEM195 gene expression, log2 [ratio] [31]: 0.972 | NRG1 gene expression, R* ratio to control [32]: 0.646 times | NRG1 gene expression, log2 [ratio] [32]: −0.830 | BNIP3 expression R*: Ratio to control [33]: 0.374 times | BNIP3 expression log2 [ratio] [33]: −1.418 | CEBPB expression R*: Ratio to control [34]: 0.617 times | CEBPB expression log2 [ratio] [34]: −0.697 | BAK1 expression R*: Ratio to control [35]: 0.402 times | BAK1 expression log2 [ratio] [35]: −1.313 | ANXA2 expression R*: Ratio to control [36]: 1.673 times | ANXA2 expression log2 [ratio] [36]: 0.742
